# According to patent US6528496B1, “Compositions treating, preventing or reducing elevated metabolic levels” (priority 1992, dated 2003):
# “Also recorded” adds a separate entry of the source.
# Key:
# [1] = test system: serum MMA and HC; test: Parenteral B12 treatment of geriatric outpatients with low and low/normal serum B12, response of serum MMA and HC (Example 3); format: in vivo, human; conditions: weekly injections of 1.0 mg B12
# Description: A study was conducted with 152 elderly outpatient subjects to measure the prevalence of B12 deficiency in geriatric outpatients as determined by both low serum B12 levels and elevations of MMA and HC, and to determine the response to B12 treatment. Blood samples were obtained on 152 consecutive geriatric outpatients, ages 65-99. Control values were determined from 100 subjects, ages 17-65. The significance of the results marked as “**” in Table 2 are as follows: B12 levels of<200 pg/ml; folate<3.8 ng/ml; homocysteine>16.2 uM; MMA>271 nM; CT>342 nM; and 2-MCA>228 nM. Serum MMA, HC, CT, and 2-MCA levels were measured as described in Example 1. Serum B12 and folate were measured as described in Example 1 using a Corning Immophase kit (CIBA-Corning, Medfield, Mass.) with the normal range defined as 200-800 pg/ml for B12 and 3.8 ng/ml for folate. After evaluation, patients received weekly parenteral cyanocobalamin injections (1,000 ug IM) for 8 weeks, followed by monthly injections. Repeat laboratory and clinical assessments were administered at 8 weeks and at 6 months.
# Patients with low and low/normal serum B12 levels were treated with weekly injections of 1.0 mg B12. […] It appears that the true prevalence of previously unrecognized B12 deficiency in this elderly population was at least 14.5%.
# [2] = test system: serum MMA and HC; test: Parenteral B12 treatment of geriatric nursing home patients with serum B12<300 pg/ml, response of serum MMA and HC (Example 4); format: in vivo, human
# Description: A study was conducted with 212 elderly nursing home patients to determine serum B12, folate, MMA, and HC levels (Table 3). The significance of the results shown in Table 3 marked with “**” are as described for Table 2 (Example 3). The control group consisted of 100 subjects between the ages of 17-65 years.
# [3] = 2.0 mg oral dose, in the absence of intrinsic factor; cited from earlier work
# [4] = parenteral 1 mg per week for 8 weeks, nursing home patients with serum B12<300 pg/ml
substance,measurement,setting,value
cyanocobalamin [B12],"effect on elevated metabolite levels (serum MMA and HC, FIGS. 4 and 5)",[1],fall to or towards normal; also recorded: did not fully respond
same,effect on elevated serum HC levels (FIG. 10),[2]; [4],fall to or towards normal
same,effect on elevated serum MMA levels (FIG. 9),[2]; [4],fall to or towards normal
same,response of elevated metabolite levels to B12 treatment,[2]; some of the nursing home patients with elevated metabolite levels,did not fully respond
same,fraction of oral dose absorbed by diffusion,[3],approximately 1%
